In patent US7019132B2, “Porphyrin derivatives” (Kostarworld Co., Ltd., priority 2003, dated 2006):

Tests used:
mouse EMT6 cell line [1] = test system: mouse EMT6 cell line
Description: (§2) Breast cancer cell line (EMT6; 1×10^6 cells/mouse) was cultured in culture medium (DMEM+10% FBS+100 units of Penicillin+100 μg streptomycin), treated with 0.25% Trypsin-EDTA to collect the cells and the number of cells was counted using by Trypan blue staining reagent.
(§3) Each 3 ml of cells was added to 35 mm of culture dish in the concentration of 2×10^5 cells/ml and incubated in 5% CO2 incubator for 24 hrs in order that the cells be arranged to be made a mono-layer.
(§4) Photosensitizing substance was added thereto and irradiation was subjected thereon at the strength of 1.2 J using by halogen lamp. The culture dishes were transferred to incubators and incubated.
(§5) The cell cytotoxicity caused by PDT was analyzed by MTT assay and the morphology of cells was observed by microscopy.
(§6) Conventional photosensitizer, i.e., photogem®, was used as a comparative control group and several factors such as the concentration of test samples, the irradiation strength of light and the absorption time of samples etc were modified in the present experiment.

[2] = Acute toxicity test on Sprague-Dawley rats; format: in vivo; conditions: i.p. 20, 10 and 1 mg/kg, observed 24 hrs
Description: (§1) The acute toxicity tests on ICR mice (mean body weight 25±5 g) and Sprague-Dawley rats (235±10 g) were performed using the compounds 1 and 10. Each group consisting of 3 mice or rats was administrated intraperitoneally with 20 mg/kg, 10 mg/kg and 1 mg/kg of test compounds or solvents (0.2 ml, i.p.), respectively and observed for 24 hrs.

EMT6 cells [3] = test: Annexin V/PI staining for cell apoptosis; format: cell-based, mouse; conditions: PDT treatment group 0.2 μg/hr; above 90% of cells survived in control
From the text: FIG. 4 presents the staining result with Annexin V/PI staining to study the action mechanism of cell apoptosis.

[4] = λexcitation 508 nm, toluene, air-saturated, 21° C.
Description: The transforming activity of the target compounds into singlet oxygen state was measured by following methods.
The experimental assay was performed under air-saturated condition (99.999% ultra-purified gas) using toluene (Merck Co. HPLC grade) as a solvent, in the oxygen concentration in the solution of 2.1×10^−3 M at 21° C.

mouse EMT6 cell line [5] = test: Cell cytotoxicity caused by PDT on EMT6 cell line, MTT assay
Description: as §2, §3, §4, §5, §6

[6] = Acute toxicity test on ICR mice; format: in vivo; conditions: i.p. 20, 10 and 1 mg/kg, observed 24 hrs
Description: as §1

EMT6 cell = test: MMP (mitochondrial membrane potential), JC-1 dye staining, FACS analysis; format: cell-based, mouse; conditions: after PDT, JC-1 staining
From the text: FIG. 8 depicts the diagram determining MMP (mitochondrial membrane potential) within EMT6 cell after the treatment of PDT and JC-1 dye staining by FACS analysis.

EMT6 tumor = test: In vivo PDT assay, EMT6 breast cancer transplanted to BALB/c mouse
Description: DH-1-180-3 as a test sample of the present invention and photofrin (photogem®) as a control group were used in test.
The tumor size of each mice was determined using by caliper at the interval of 2 or 3 days and the survival ratio of the mice according to tumor was also determined.

EMT6 cells [7] = test system: EMT6 cells

## methyl pheophorbide α triethylene glycol ester [DH-1-180-3]
Mouse EMT6 cell line [1]
  cell cytotoxicity without light: do not show cell cytotoxicty
  intensity of irradiating light for strongest cytotoxicity / optimum: 1.2 J
[2]
  acute toxicity findings: no treatment-related effects on mortality, clinical signs, body weight changes and gross findings
EMT6 cells [3]
  dead cells: 50 to 60%
[4]
  transformed photon yield (singlet oxygen state): 0.60 (5%)
Mouse EMT6 cell line [5]; 0.4 μg/ml, 1.2 J
  optimum absorption time: 1 h
Mouse EMT6 cell line [5]; EMT6, MTT assay, with light irradiation
  LD100: 0.4 µg
Mouse EMT6 cell line [5]; absorption 1 hour, 1.2 J, analysis at 24 hrs
  optimum concentration of photosensitizer used in PDT: 0.4 µg/mL
[6]
  acute toxicity findings: no treatment-related effects on mortality, clinical signs, body weight changes and gross findings
EMT6 cell
  MMP (mitochondrial membrane potential): remarkably decreased
EMT6 tumor; 0.4 and 0.8 mg/kg/mouse, light 1.2 J 3 h later, vs control and photofrin (2 mg/kg/mouse)
  growing ratio of tumor: remarkably decreased
EMT6 tumor; PDT treatment group vs control group
  survival ratio: extended
EMT6 cells [7]
  concentration showing the strongest cell cytotoxicity: at least 0.4 μg
  duration time showing the strongest cell cytotoxicity: at least 60 minutes
